Key:
TPR-Met/NIH3T3 cells = assay: In-vivo test: subcutaneous TPR-Met/NIH3T3 tumour in Balb/C mice, tumour volume; details: female Balb/C mice, 200 mg/kg daily by gastric tube, 9 days
Protocol: Experimental procedure: Female Balb/C mice (breeder: Charles River Wiga) were 5 weeks old on arrival. They were acclimatised to our keeping conditions for 7 days. Each mouse was subsequently injected subcutaneously in the pelvic area with 4 million TPR-Met/NIH3T3 cells in 100 μl of PBS (without Ca++ and Mg++).
Measurement of the tumour volume: The length (L) and breadth (B) were measured using a Vernier calliper, and the tumour volume was calculated from the formula L×B×B/2.
Keeping conditions: 4 or 5 animals per cage, feeding with commercial mouse food (Sniff).

Met kinase = target: T1, Met kinase (Homo sapiens, UniProt P08581); assay: Met kinase inhibition (enzyme assay), flashplate method; assay type: biochemical
T1 construct: 6His (N); purchased Upstate 14-526; host or cells: insect cells (Sf21; S. frugiperda), baculovirus
T1 sequence (P08581 974-1390 limits assumed): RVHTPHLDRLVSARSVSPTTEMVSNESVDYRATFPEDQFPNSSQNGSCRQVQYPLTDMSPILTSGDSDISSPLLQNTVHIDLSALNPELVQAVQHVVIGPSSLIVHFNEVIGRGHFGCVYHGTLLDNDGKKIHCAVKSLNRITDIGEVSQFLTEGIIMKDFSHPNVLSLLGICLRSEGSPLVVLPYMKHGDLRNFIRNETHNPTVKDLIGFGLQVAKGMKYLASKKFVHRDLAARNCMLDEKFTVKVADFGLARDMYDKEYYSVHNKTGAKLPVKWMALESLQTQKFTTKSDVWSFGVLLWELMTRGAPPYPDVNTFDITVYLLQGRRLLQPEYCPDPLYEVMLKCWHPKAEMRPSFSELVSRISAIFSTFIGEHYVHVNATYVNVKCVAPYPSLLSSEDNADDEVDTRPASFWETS
Protocol: Flashplate Method (Met Kinase)
The test plates used are 96-well Flashplate® microtitre plates from Perkin Elmer (Cat. No. SMP200). The components of the kinase reaction described below are pipetted into the assay plate. The Met kinase and the substrate poly Ala-Glu-Lys-Tyr, (PAGLT, 6:2:5:1), are incubated for 3 hrs at room temperature with radioactively labelled ^33P-ATP in the presence and absence of test substances in a total volume of 100 μl. The reaction is terminated using 150 μl of a 60 mM EDTA solution. After incubation for a further 30 min at room temperature, the supernatants are filtered off with suction, and the wells are washed three times with 200 μl of 0.9% NaCl solution each time. The measurement of the bound radioactivity is carried out by means of a scintillation measuring instrument (Topcount NXT, Perkin-Elmer).
The full value used is the inhibitor-free kinase reaction. This should be approximately in the range 6000-9000 cpm. The pharmacological zero value used is staurosporin in a final concentration of 0.1 mM. The inhibitory values (IC50) are determined using the RS1_MTS program.
Kinase reaction conditions per well: • 30 μl of assay buffer • 10 μl of substance to be tested in assay buffer with 10% of DMSO • 10 μl of ATP (final concentration 1 μM cold, 0.35 μCi of ^33P-ATP) • 50 μl of Met kinase/substrate mixture in assay buffer; (10 ng of enzyme/well, 50 ng of pAGLT/well)
Assay Buffer: • 50 mM HEPES • 3 mM magnesium chloride • 3 μM sodium orthovanadate • 3 mM manganese(II) chloride • 1 mM dithiothreitol (DTT) • pH=7.5 (to be set using sodium hydroxide)

CN1CCN(CCCOC(=O)Nc2cccc(Cn3nc(-c4cc(F)cc(F)c4)ccc3=O)c2)CC1 [A91, 3-(4-Methylpiperazin-1-yl)propyl {3-[3-(3,5-difluorophenyl)-6-oxo-6H-pyridazin-1-ylmethyl]phenyl}carbamate] was tested, and the “antitumoural action (tumour volume)” value (TPR-Met/NIH3T3 cells) was “significant antitumoural action” and the IC50 (Met kinase) was 10 to 1000 nM.

— patent publication US8173653B2, “Pyridiazinone derivatives for the treatment of tumours” (Merck Patent Gesellschaft MIT Beschraenkter Haftung, priority 2005, dated 2012)
